Laboratory results reported in PubChem BioAssay AID2060892 (Molecular Pharmacology Branch, DTP, NCI, 2025).

System: HOP-62 complex spheroids with HUVEC/MSC, viability
Assay: Anticancer human tumor HOP-62 cell line growth inhibition [RAS];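 note: spheroids exposed to agents for seven days before readout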;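 for viability, T/C: 100% = DMSO vehicle control viability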
Settings: for IC50: curve of first compound; for viability, T/C: stronger effect = lower value
How it was run: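 Agents were tested in combination matrices in half-log decrements from a top concentration at or near clinical Cmax (10 microM if undetermined). Targets were multi-cell spheroids of tumour lines plus HUVEC and MSC stromal cells.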

[1] = second compound 0.000949 µM, first compound 0.00316 µM
[2] = second compound 0.000949 µM, first compound 0.01 µM
[3] = second compound 0.000949 µM, first compound 0.0316 µM
[4] = second compound 0.000949 µM, first compound 0.1 µM
[5] = second compound 0.003 µM, first compound 0.00316 µM
[6] = second compound 0.003 µM, first compound 0.01 µM
[7] = second compound 0.003 µM, first compound 0.0316 µM
[8] = second compound 0.003 µM, first compound 0.1 µM
[9] = second compound 0.00949 µM, first compound 0.00316 µM
[10] = second compound 0.00949 µM, first compound 0.01 µM
[11] = second compound 0.00949 µM, first compound 0.0316 µM
[12] = second compound 0.00949 µM, first compound 0.1 µM
[13] = second compound 0.03 µM, first compound 0.00316 µM
[14] = second compound 0.03 µM, first compound 0.01 µM
[15] = second compound 0.03 µM, first compound 0.0316 µM
[16] = second compound 0.03 µM, first compound 0.1 µM
[17] = second compound 0.0949 µM, first compound 0.00316 µM
[18] = second compound 0.0949 µM, first compound 0.01 µM
[19] = second compound 0.0949 µM, first compound 0.0316 µM
[20] = second compound 0.0949 µM, first compound 0.1 µM
[21] = second compound 0.3 µM, first compound 0.00316 µM
[22] = second compound 0.3 µM, first compound 0.01 µM
[23] = second compound 0.3 µM, first compound 0.0316 µM
[24] = second compound 0.3 µM, first compound 0.1 µM
[25] = second compound 0.000949 µM, first compound 0.316 µM
[26] = second compound 0.000949 µM, first compound 1 µM
[27] = second compound 0.000949 µM, first compound 3.16 µM
[28] = second compound 0.000949 µM, first compound 10 µM
[29] = second compound 0.003 µM, first compound 0.316 µM
[30] = second compound 0.003 µM, first compound 1 µM
[31] = second compound 0.003 µM, first compound 3.16 µM
[32] = second compound 0.003 µM, first compound 10 µM
[33] = second compound 0.00949 µM, first compound 0.316 µM
[34] = second compound 0.00949 µM, first compound 1 µM
[35] = second compound 0.00949 µM, first compound 3.16 µM
[36] = second compound 0.00949 µM, first compound 10 µM
[37] = second compound 0.03 µM, first compound 0.316 µM
[38] = second compound 0.03 µM, first compound 1 µM
[39] = second compound 0.03 µM, first compound 3.16 µM
[40] = second compound 0.03 µM, first compound 10 µM
[41] = second compound 0.0949 µM, first compound 0.316 µM
[42] = second compound 0.0949 µM, first compound 1 µM
[43] = second compound 0.0949 µM, first compound 3.16 µM
[44] = second compound 0.0949 µM, first compound 10 µM
[45] = second compound 0.3 µM, first compound 0.316 µM
[46] = second compound 0.3 µM, first compound 1 µM
[47] = second compound 0.3 µM, first compound 3.16 µM
[48] = second compound 0.3 µM, first compound 10 µM

## CC(C)n1nc(-c2ccc3oc(N)nc3c2)c2c(N)ncnc21 + CCn1c(-c2cc(N3CCN(C)CC3)cnc2C(C)OC)c2c3cc(ccc31)-c1csc(n1)CC(NC(=O)C1CC1C)C(=O)N1CCCC(N1)C(=O)OCC(C)(C)C2
Second compound 0.000949 µM
  IC50: 32.8 nM
Second compound 0.003 µM
  IC50: 15.3 nM
Second compound 0.00949 µM
  IC50: 8.38 nM
Second compound 0.03 µM
  IC50: 0.644 nM
Second compound 0.0949 µM
  IC50: < 0.316 nM
Second compound 0.3 µM
  IC50: < 0.316 nM
Second compound 0.000949 µM, first compound 0.000316 µM
  viability, T/C: 122%
Second compound 0.000949 µM, first compound 0.001 µM
  viability, T/C: 111%
[1]
  viability, T/C: 71.4%
[2]
  viability, T/C: 71.8%
[3]
  viability, T/C: 59.5%
[4]
  viability, T/C: 28.3%
Second compound 0.003 µM, first compound 0.000316 µM
  viability, T/C: 96.2%
Second compound 0.003 µM, first compound 0.001 µM
  viability, T/C: 81.7%
[5]
  viability, T/C: 59%
[6]
  viability, T/C: 65.4%
[7]
  viability, T/C: 44.9%
[8]
  viability, T/C: 23.2%
Second compound 0.00949 µM, first compound 0.000316 µM
  viability, T/C: 64.9%
Second compound 0.00949 µM, first compound 0.001 µM
  viability, T/C: 56.1%
[9]
  viability, T/C: 58.6%
[10]
  viability, T/C: 48.9%
[11]
  viability, T/C: 30.7%
[12]
  viability, T/C: 24%
Second compound 0.03 µM, first compound 0.000316 µM
  viability, T/C: 52.5%
Second compound 0.03 µM, first compound 0.001 µM
  viability, T/C: 48.5%
[13]
  viability, T/C: 40%
[14]
  viability, T/C: 32.6%
[15]
  viability, T/C: 21.7%
[16]
  viability, T/C: 22.1%
Second compound 0.0949 µM, first compound 0.000316 µM
  viability, T/C: 38.1%
Second compound 0.0949 µM, first compound 0.001 µM
  viability, T/C: 36.4%
[17]
  viability, T/C: 35.8%
[18]
  viability, T/C: 37.5%
[19]
  viability, T/C: 20.6%
[20]
  viability, T/C: 24.6%
Second compound 0.3 µM, first compound 0.000316 µM
  viability, T/C: 37.8%
Second compound 0.3 µM, first compound 0.001 µM
  viability, T/C: 35%
[21]
  viability, T/C: 34.4%
[22]
  viability, T/C: 27.7%
[23]
  viability, T/C: 26.5%
[24]
  viability, T/C: 24.8%

## CC1(O)CCCC1n1c(=O)c(C(F)F)cc2cnc(NC3CCN(S(C)(=O)=O)CC3)nc21 (stereo not drawn) + CCn1c(-c2cc(N3CCN(C)CC3)cnc2C(C)OC)c2c3cc(ccc31)-c1csc(n1)CC(NC(=O)C1CC1C)C(=O)N1CCCC(N1)C(=O)OCC(C)(C)C2
Second compound 0.000949 µM
  IC50: 5050 nM
Second compound 0.003 µM
  IC50: 3770 nM
Second compound 0.00949 µM
  IC50: 1060 nM
Second compound 0.03 µM
  IC50: < 31.6 nM
Second compound 0.0949 µM
  IC50: < 31.6 nM
Second compound 0.3 µM
  IC50: < 31.6 nM
[3]
  viability, T/C: 104%
[4]
  viability, T/C: 87.2%
[25]
  viability, T/C: 57.5%
[26]
  viability, T/C: 80.3%
[27]
  viability, T/C: 83.6%
[28]
  viability, T/C: 2.49%
[7]
  viability, T/C: 87.4%
[8]
  viability, T/C: 65.2%
[29]
  viability, T/C: 58.9%
[30]
  viability, T/C: 62.3%
[31]
  viability, T/C: 61.1%
[32]
  viability, T/C: 2.49%
[11]
  viability, T/C: 69.7%
[12]
  viability, T/C: 53.8%
[33]
  viability, T/C: 57.8%
[34]
  viability, T/C: 46.5%
[35]
  viability, T/C: 40.6%
[36]
  viability, T/C: 2.35%
[15]
  viability, T/C: 49.7%
[16]
  viability, T/C: 44.1%
[37]
  viability, T/C: 36.5%
[38]
  viability, T/C: 49.3%
[39]
  viability, T/C: 23.2%
[40]
  viability, T/C: 2.84%
[19]
  viability, T/C: 32.5%
[20]
  viability, T/C: 33.9%
[41]
  viability, T/C: 33.8%
[42]
  viability, T/C: 37.1%
[43]
  viability, T/C: 19.5%
[44]
  viability, T/C: 3.11%
[23]
  viability, T/C: 36.9%
[24]
  viability, T/C: 34.2%
[45]
  viability, T/C: 34.3%
[46]
  viability, T/C: 30.9%
[47]
  viability, T/C: 20.8%
[48]
  viability, T/C: 3.29%

## CCN1CCN(Cc2ccc(Nc3ncc(F)c(-c4cc(F)c5nc(C)n(C(C)C)c5c4)n3)nc2)CC1 + CCn1c(-c2cc(N3CCN(C)CC3)cnc2C(C)OC)c2c3cc(ccc31)-c1csc(n1)CC(NC(=O)C1CC1C)C(=O)N1CCCC(N1)C(=O)OCC(C)(C)C2
Second compound 0.000949 µM
  IC50: > 1000 nM
Second compound 0.003 µM
  IC50: > 1000 nM
Second compound 0.00949 µM
  IC50: > 1000 nM
Second compound 0.03 µM
  IC50: 70.4 nM
Second compound 0.0949 µM
  IC50: < 3.16 nM
Second compound 0.3 µM
  IC50: < 3.16 nM
[1]
  viability, T/C: 121%
[2]
  viability, T/C: 117%
[3]
  viability, T/C: 85.5%
[4]
  viability, T/C: 109%
[25]
  viability, T/C: 114%
[26]
  viability, T/C: 87.8%
[5]
  viability, T/C: 97.9%
[6]
  viability, T/C: 81.7%
[7]
  viability, T/C: 78.2%
[8]
  viability, T/C: 90.4%
[29]
  viability, T/C: 104%
[30]
  viability, T/C: 62.6%
[9]
  viability, T/C: 70.7%
[10]
  viability, T/C: 57.9%
[11]
  viability, T/C: 68.2%
[12]
  viability, T/C: 74.3%
[33]
  viability, T/C: 57.3%
[34]
  viability, T/C: 50.8%
[13]
  viability, T/C: 52.8%
[14]
  viability, T/C: 52.4%
[15]
  viability, T/C: 51.9%
[16]
  viability, T/C: 49%
[37]
  viability, T/C: 32.6%
[38]
  viability, T/C: 50.4%
[17]
  viability, T/C: 38.4%
[18]
  viability, T/C: 42.8%
[19]
  viability, T/C: 39.2%
[20]
  viability, T/C: 32.4%
[41]
  viability, T/C: 32.6%
[42]
  viability, T/C: 47%
[21]
  viability, T/C: 36.6%
[22]
  viability, T/C: 37.1%
[23]
  viability, T/C: 35.2%
[24]
  viability, T/C: 33.4%
[45]
  viability, T/C: 40.7%
[46]
  viability, T/C: 45.3%

## C[C@@H](NC(=O)c1ncnc(N)c1Cl)c1ncc(C(=O)Nc2cc(C(F)(F)F)c(Cl)cn2)s1 + CCn1c(-c2cc(N3CCN(C)CC3)cnc2C(C)OC)c2c3cc(ccc31)-c1csc(n1)CC(NC(=O)C1CC1C)C(=O)N1CCCC(N1)C(=O)OCC(C)(C)C2
Second compound 0.000949 µM
  IC50: > 10000 nM
Second compound 0.003 µM
  IC50: > 10000 nM
Second compound 0.00949 µM
  IC50: > 10000 nM
Second compound 0.03 µM
  IC50: > 10000 nM
Second compound 0.0949 µM
  IC50: 342 nM
Second compound 0.3 µM
  IC50: < 31.6 nM
[3]
  viability, T/C: 111%
[4]
  viability, T/C: 119%
[25]
  viability, T/C: 93.4%
[26]
  viability, T/C: 115%
[27]
  viability, T/C: 114%
[28]
  viability, T/C: 74.6%
[7]
  viability, T/C: 107%
[8]
  viability, T/C: 101%
[29]
  viability, T/C: 96.7%
[30]
  viability, T/C: 104%
[31]
  viability, T/C: 94.7%
[32]
  viability, T/C: 60.6%
[11]
  viability, T/C: 80.9%
[12]
  viability, T/C: 99.5%
[33]
  viability, T/C: 76.4%
[34]
  viability, T/C: 83.7%
[35]
  viability, T/C: 75.9%
[36]
  viability, T/C: 51.3%
[15]
  viability, T/C: 65.9%
[16]
  viability, T/C: 56.7%
[37]
  viability, T/C: 62.1%
[38]
  viability, T/C: 66.4%
[39]
  viability, T/C: 47.8%
[40]
  viability, T/C: 57%
[19]
  viability, T/C: 46.9%
[20]
  viability, T/C: 56.4%
[41]
  viability, T/C: 48.2%
[42]
  viability, T/C: 54.4%
[43]
  viability, T/C: 38.6%
[44]
  viability, T/C: 55%
[23]
  viability, T/C: 47.7%
[24]
  viability, T/C: 49.6%
[45]
  viability, T/C: 43.9%
[46]
  viability, T/C: 41.3%
[47]
  viability, T/C: 45.4%
[48]
  viability, T/C: 47.3%
